Test results from patent US6949531B2, “14 β, 16, 17-methylene steroids as novel androgens” (Akzo Nobel N.V., priority 2000, dated 2005).

Columns and labels:
[1] = molecular target: T1, human androgen receptor (hAR) (Homo sapiens, UniProt P10275); assay: transactivative androgen activity in CHO cells transfected with hAR, MMTV and luciferase reporter gene; type: cell-based; conditions: MMTV, luciferase, incubation 16 h, 37° C., compared with the activity of dihydrotestosterone
T1 construct: expressed in transfected cells; host or cells: Chinese hamster ovary (CHO) cells
T1 sequence (P10275 1-920): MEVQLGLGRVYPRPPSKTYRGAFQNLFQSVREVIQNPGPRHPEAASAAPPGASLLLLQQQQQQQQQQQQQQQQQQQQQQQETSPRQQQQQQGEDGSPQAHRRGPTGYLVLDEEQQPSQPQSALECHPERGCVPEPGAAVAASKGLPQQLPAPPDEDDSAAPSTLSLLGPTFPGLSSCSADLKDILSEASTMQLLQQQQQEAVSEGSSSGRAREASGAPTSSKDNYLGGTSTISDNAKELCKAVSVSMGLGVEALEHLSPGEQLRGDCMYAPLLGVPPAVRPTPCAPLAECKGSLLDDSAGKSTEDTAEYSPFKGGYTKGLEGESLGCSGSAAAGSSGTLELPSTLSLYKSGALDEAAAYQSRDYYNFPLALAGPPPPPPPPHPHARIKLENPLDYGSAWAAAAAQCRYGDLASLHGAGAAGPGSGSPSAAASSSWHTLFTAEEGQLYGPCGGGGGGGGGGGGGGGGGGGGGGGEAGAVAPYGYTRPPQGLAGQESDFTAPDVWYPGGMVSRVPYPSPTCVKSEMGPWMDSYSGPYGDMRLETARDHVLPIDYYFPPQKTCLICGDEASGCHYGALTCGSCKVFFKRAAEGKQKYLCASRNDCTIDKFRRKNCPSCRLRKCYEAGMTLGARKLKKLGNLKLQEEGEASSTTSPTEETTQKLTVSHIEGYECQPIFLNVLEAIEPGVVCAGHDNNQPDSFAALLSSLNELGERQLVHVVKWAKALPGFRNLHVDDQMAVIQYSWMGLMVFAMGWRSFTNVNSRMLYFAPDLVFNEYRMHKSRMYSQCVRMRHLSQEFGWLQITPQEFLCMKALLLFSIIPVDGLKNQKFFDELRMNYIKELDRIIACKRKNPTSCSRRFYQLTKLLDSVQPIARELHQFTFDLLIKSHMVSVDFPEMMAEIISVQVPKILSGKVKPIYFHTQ
Description: Androgenic activity can be measured in various ways. Thus, the potency of androgens can be determined in vitro using the cytoplasmic androgen receptor from human breast tumor cells (MCF-7 cell line); see Bergink, E. W. et al, Comparison of the receptor binding properties of nandrolone and testosterone under in vitro and in vivo conditions, J. Steroid Biochem. 22, 831-836 (1985). It is also possible to use Chinese hamster ovary (CHO) cells transfected with the human androgen receptor (incubation time 16 h, temperature 4° C.) and compared with the affinity of 5α-dihydrotestosterone [according to the procedure described by Bergink, E. W. et al, J. Steroid Biochem. 19, 1563-1570 (1983)]. The transactivative androgen activity of the compounds of the invention can be measured, e.g. in Chinese hamster ovary cells (CHO) transfected with the human androgen receptor (hAR), in combination with a mouse mammary tumor virus (MMTV), and luciferase […] gene (incubation time 16 h, temperature 37° C.) and compared with the activity of […] [according to the procedure described by Schoonen, W. G. E. J. et al, Analyt. […] In this test the androgenic (increase in prostate weight) and anabolic activities [increase of the musculus levator ani (MLA)] of a compound are tested in immature castrated rats after daily administration for 7 days; see Hershberger, L. G. et al, Myotrophic activity of 19-Nortestosteronie and other steroids determined by modified levator ani muscle method, Proceedings of the society for experimental biology and medicine 83, 175-180 (1953). […]
The transactivative androgen activity was determined in a comparison of the following compounds: the compound of Example 1 according to the invention, i.e. (7α,14β,16α,17α)-16,17-dihydro-17-(hydroxymethyl)-7-methyl-3′H-cyclopropa[16,17]estra-4,16-dien-3-one, and compounds denoted C1 and C2, not according to the invention, which respectively are (7α,14β,16β,17α)-17-(hydroxymethyl)-7,16-dimethylestr-4-en-3-one and (7α,14β,17α)-17-(hydroxymethyl)-7,17-dimethylestr-4-en-3-one as disclosed in WO 00/53619.

[2] = tested on: androgen receptor; assay: androgenic activity rating (procedures described above); set-up: key: +: androgenic activity found; ++: high androgenic activity; +++: excellent androgenic activity; conditions: rated according to scheme; test procedure not specified
Description: Androgenic activity can be measured in various ways. Thus, the potency of androgens can be determined in vitro using the cytoplasmic androgen receptor from human breast tumor cells (MCF-7 cell line); see Bergink, E. W. et al, Comparison of the receptor binding properties of nandrolone and testosterone under in vitro and in vivo conditions, J. Steroid Biochem. 22, 831-836 (1985). It is also possible to use Chinese hamster ovary (CHO) cells transfected with the human androgen receptor (incubation time 16 h, temperature 4° C.) and compared with the affinity of 5α-dihydrotestosterone [according to the procedure described by Bergink, E. W. et al, J. Steroid Biochem. 19, 1563-1570 (1983)]. The transactivative androgen activity of the compounds of the invention can be measured, e.g. in Chinese hamster ovary cells (CHO) transfected with the human androgen receptor (hAR), in combination with a mouse mammary tumor virus (MMTV), and luciferase […] gene (incubation time 16 h, temperature 37° C.) and compared with the activity of […] [according to the procedure described by Schoonen, W. G. E. J. et al, Analyt. Biochem. 261, 222-224 (1998)]. For the in vivo potency determination of androgens the classical Hershberger test can be used. In this test the androgenic (increase in prostate weight) and anabolic activities [increase of the musculus levator ani (MLA)] of a compound are tested in immature castrated rats after daily administration for 7 days; see Hershberger, L. G. et al, Myotrophic activity of 19-Nortestosteronie and other steroids determined by modified levator ani muscle method, Proceedings of the society for experimental biology and medicine 83, 175-180 (1953). Additionally, the effect of an androgenic compound on LH suppression can be tested in mature castrated rats according to Kumar, N. et al, The biological activity of 7alpha-methyl-19-nortestosterone is not amplified in male reproductive tract as is that of testosterone, Endocrinology 130, 3677-3683 (1992).
The compounds according to the invention were tested for androgenic activity (the procedures for which have been described above) and rated according to the following scheme: […]

SMILES	Transactivative androgen activity [1]	Result (androgenic activity) [2]
C[C@@H]1CC2=CC(=O)CC[C@@H]2[C@H]2CC[C@@]3(C)[C@H](C[C@H](C)[C@H]3CO)[C@@H]21 [Example C1, (7α,14β,16β,17α)-17-(hydroxymethyl)-7,16-dimethylestr-4-en-3-one]	72	
C[C@@H]1CC2=C[C@@H](O)CC[C@@H]2[C@H]2CC[C@@]3(C)[C@H](C[C@@H]4C[C@@]43CO)[C@@H]21 [Example 4, (3β,7α,14β,16α,17α)-16,17-Dihydro-17-(hydroxymethyl)-7-methyl-3′H-cyclopropa[16,17]estra-4,16-dien-3-ol]		(prodrug)
C#C[C@H](O)[C@]12C[C@H]1C[C@@H]1[C@H]3[C@H](CC[C@@]12C)[C@H]1CCC(=O)C=C1C[C@H]3C [Example 3b, [7α,14β,16α,17α(20S)]-16,17-Dihydro-20-(1-hydroxy-2-propynyl)-7-methyl-3 ′H-cyclopropa[16,17]estra-4,16-dien-3-one]		++
CC[C@H](O)[C@]12C[C@H]1C[C@@H]1[C@H]3[C@H](CC[C@@]12C)[C@H]1CCC(=O)C=C1C[C@H]3C [Example 3a, [7α,14β,16α,17α(20S)]-16,17-Dihydro-20-(1-hydroxypropyl)-7-methyl-3′H-cyclopropa [16,17]estra-4,16-dien-3-one]		++
C[C@]12CC[C@H]3[C@@H](CC[C@H]4CC(=O)CC[C@@H]43)[C@H]1C[C@@H]1C[C@@]12CO [Example 7, (5α,14β,16α,17α)-16,17-Dihydro-17-(hydroxymethyl)-3′H-cyclopropa[16,17]estr-16-en-3-one]		++
C[C@@H]1CC2=C/C(=N\O)CC[C@@H]2[C@H]2CC[C@@]3(C)[C@H](C[C@@H]4C[C@@]43CO)[C@@H]21 [Example 5b, (3Z,7α,14β,16α,17α)-16,17-dihydro-3-(hydroxyimino)-7-methyl-3′H-cyclopropa[16,17]estra-4,16-diene-17-methanol]		(prodrug)
C[C@@H]1CC2=CC(=O)CC[C@@H]2[C@H]2CC[C@@]3(C)[C@H](C[C@@H]4C[C@@]43[C@H](C)O)[C@@H]21 [Example 2, (7α,14β,16α,17α,20S)-16,17-Dihydro-20-hydroxy-7-methyl-3′H-cyclopropa[16,17]-19-norpregna-4,16-dien-3-one]		++
C[C@]12CC[C@H]3[C@@H](CCC4=CC(=O)CC[C@@H]43)[C@H]1C[C@@H]1C[C@@]12CO [Example 6, (14β,16α,17α)-16,17-Dihydro-17-(hydroxymethyl)-3′H-cyclopropa[16,17]estra-4,16-dien-3-one]		++
C[C@@H]1CC2=CC(=O)CC[C@@H]2[C@H]2CC[C@@]3(C)[C@H](C[C@@H]4C[C@@]43CO)[C@@H]21 [Example 1, (7α,14β,16α,17α)-16,17-Dihydro-17-(hydroxymethyl)-7-methyl-3′H-cyclopropa[16,17]estra-4,16-dien-3-one]	263	+++
CC1CC2=CC(=O)CCC2C2CCC3(C)C(CCC3(C)CO)C12 (stereo not drawn) [Example C2, (7α,14β,17α)-17-(hydroxymethyl)-7,17-dimethylestr-4-en-3-one]	22	
C[C@@H]1CC2=C/C(=N/O)CC[C@@H]2[C@H]2CC[C@@]3(C)[C@H](C[C@@H]4C[C@@]43CO)[C@@H]21 [Example 5a, (3E,7α,14β,16α,17α)-16,17-Dihydro-3-(hydroxyimino)-7-methyl-3′H-cyclopropa[16,17]estra-4,16-diene-17-methanol]		(prodrug)
